Among the test systems are 786-0 renal; CCRF-CEM leukemia; DU-145 prostate; HT29 colon; MDA-MB-435; MOLT-4 leukemia; OVCAR-3 ovarian; RXF 393 renal; SNB-19 CNS; TK-10 renal.
Common to all, as to assay: NCI-60 cell line screen, 48 h

The structures appear in SMILES notation. Several values for one entry are separate records, joined by “and”; a condition that tells them apart may be missing. Equal values may be shown once.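 Compound exposure: 48 hours, 5 concentrations, 96-well plates. The concentration for 50% growth inhibition is given as GI50. TGI marks complete inhibition of growth.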

With `Cc1cc(C(=O)NOCCO)c(Nc2ccc(I)cc2F)n(C)c1=O`, the GI50 was more than 83.9 µM in the test on 786-0 renal; more than 100 µM with CCRF-CEM leukemia; > 10 µM and 53.8 µM in the test on DU-145 prostate; 0.00193 µM and < 0.01 µM with HT29 colon; 0.00458 µM and < 0.01 µM in the test on MDA-MB-435; more than 100 µM in the test on MOLT-4 leukemia. For the same molecule, the GI50 in the test with OVCAR-3 ovarian was more than 100 µM; with RXF 393 renal, 0.0915 µM and 0.199 µM; with SNB-19 CNS, 6.08 µM. Moreover, the TGI with 786-0 renal, with CCRF-CEM leukemia, in the test with DU-145 prostate, with HT29 colon, in the test with MDA-MB-435 and in the test with MOLT-4 leukemia was more than 100 µM in each case. Moreover, the TGI with OVCAR-3 ovarian is more than 100 µM; in the test with RXF 393 renal, > 10 µM and 92.3 µM; with SNB-19 CNS it was more than 100 µM; in the test with TK-10 renal, more than 100 µM.
For `O=C(Nc1ccc([N+](=O)[O-])cc1Cl)c1cc(Cl)ccc1O`, the GI50 in the test with 786-0 renal is 0.142 µM and 0.268 µM; in the test on CCRF-CEM leukemia it was 0.133 µM and 0.305 µM; with DU-145 prostate, 0.199 µM and 0.352 µM; with HT29 colon, 1.26 µM and 2.16 µM; in the test on MDA-MB-435, 0.115 µM and 0.244 µM; with MOLT-4 leukemia, 0.121 µM and 0.273 µM. Moreover, the GI50 was 0.141 µM and 0.283 µM with OVCAR-3 ovarian; 0.135 µM and 0.268 µM with RXF 393 renal; 0.164 µM and 0.248 µM with SNB-19 CNS; 0.165 µM and 0.307 µM in the test with TK-10 renal. For the same molecule, the TGI in the test on 786-0 renal is 0.488 µM and 0.825 µM; in the test with DU-145 prostate, 6.22 µM and 35.5 µM; in the test on HT29 colon, 3.68 µM and > 28.8 µM; with MDA-MB-435, 0.381 µM and 1.33 µM; in the test with MOLT-4 leukemia, 0.374 µM and 1.03 µM; in the test on OVCAR-3 ovarian, 2.59 µM and 21.5 µM. The TGI in the test with RXF 393 renal was 0.434 µM and 2.71 µM; in the test on SNB-19 CNS, 50 µM and > 100 µM; with TK-10 renal, 1.67 µM and 0.984 µM.
Turning to `N/C(=N/O)NOCCC(N)C(=O)O` (stereo not drawn), the GI50 in the test with 786-0 renal, in the test on CCRF-CEM leukemia, with DU-145 prostate, in the test with HT29 colon, in the test with MDA-MB-435 and with MOLT-4 leukemia was more than 100 µM in each case. Also, the GI50 with OVCAR-3 ovarian, with RXF 393 renal, in the test with SNB-19 CNS and in the test with TK-10 renal was more than 100 µM in each case. Also, the TGI in the test with 786-0 renal, in the test with CCRF-CEM leukemia, in the test with DU-145 prostate, in the test with HT29 colon, with MDA-MB-435 and in the test with MOLT-4 leukemia was more than 100 µM in each case. Further, the TGI in the test with OVCAR-3 ovarian, in the test on RXF 393 renal, in the test on SNB-19 CNS and in the test on TK-10 renal was more than 100 µM each time.
With `O=C(Nc1n[nH]c2cc(-c3ccc(F)cc3)ccc12)C1CC1`, the GI50 with 786-0 renal was 17.7 µM; with CCRF-CEM leukemia, 8.77 µM; in the test on DU-145 prostate it was 10.2 µM; in the test with HT29 colon, 7.9 µM; in the test on MDA-MB-435, 2.31 µM; in the test with MOLT-4 leukemia, 10.4 µM. Besides, the GI50 in the test on OVCAR-3 ovarian is 6.33 µM; in the test with RXF 393 renal it was 5.73 µM; in the test with SNB-19 CNS it was 12.6 µM; in the test with TK-10 renal it was more than 20.8 µM. Besides, the TGI with 786-0 renal was more than 25 µM; in the test with CCRF-CEM leukemia it was more than 25 µM; with DU-145 prostate, more than 25 µM; in the test with HT29 colon, more than 25 µM; in the test on MDA-MB-435, 12.1 µM; in the test with MOLT-4 leukemia, more than 25 µM. The TGI with OVCAR-3 ovarian is 20 µM; in the test with RXF 393 renal it was more than 22.6 µM; in the test on SNB-19 CNS, more than 25 µM; with TK-10 renal, more than 25 µM.
For `O=C(Nc1c(Cl)cccc1Cl)Oc1cccc2cccnc12`, the GI50 was 7.4 µM in the test on 786-0 renal; 2.29 µM with CCRF-CEM leukemia; 11.7 µM in the test with DU-145 prostate; 19.4 µM in the test with HT29 colon; 7.52 µM in the test with MDA-MB-435; 3.96 µM in the test with MOLT-4 leukemia. In addition, the GI50 with OVCAR-3 ovarian was 3.64 µM; in the test on RXF 393 renal it was 16.7 µM; with SNB-19 CNS, 5.74 µM; in the test on TK-10 renal, 8.98 µM. Moreover, the TGI in the test with 786-0 renal was more than 100 µM; with CCRF-CEM leukemia it was 23.2 µM; in the test with DU-145 prostate, more than 100 µM; in the test on HT29 colon, more than 100 µM; in the test on MDA-MB-435, more than 100 µM; in the test on MOLT-4 leukemia it was 28.4 µM. Besides, the TGI with OVCAR-3 ovarian, in the test with RXF 393 renal, with SNB-19 CNS and in the test on TK-10 renal was more than 100 µM in each case.
In the case of `NS(=O)(=O)c1ccc(NC(=O)Nc2cccc3ccccc23)cc1`, the TGI is 38 µM in the test with 786-0 renal; more than 100 µM in the test on CCRF-CEM leukemia; 81.3 µM with DU-145 prostate; more than 100 µM in the test on HT29 colon; more than 100 µM in the test on MDA-MB-435; more than 100 µM in the test on MOLT-4 leukemia. Also, the TGI is more than 100 µM in the test with OVCAR-3 ovarian, more than 100 µM in the test on RXF 393 renal, 44.8 µM with SNB-19 CNS and more than 100 µM in the test on TK-10 renal.
As for `COc1cc(-c2cc(-c3ccc(Nc4nc(Nc5ccc(Cl)cc5)nc(Nc5ccc(Cl)cc5)n4)cc3)no2)cc(OC)c1OC`, the GI50 was 3.6 µM with 786-0 renal; 2.16 µM in the test with CCRF-CEM leukemia; 7.08 µM in the test with DU-145 prostate; 16.9 µM in the test on HT29 colon; 7.15 µM in the test with MDA-MB-435; 1.23 µM with MOLT-4 leukemia. Besides, the GI50 in the test on OVCAR-3 ovarian is 6.68 µM; with RXF 393 renal, 0.816 µM; with SNB-19 CNS, 26.8 µM; with TK-10 renal it was 25.4 µM. For the same molecule, the TGI in the test with 786-0 renal was 20.1 µM; in the test with CCRF-CEM leukemia, 11.9 µM; with DU-145 prostate, more than 100 µM; in the test with HT29 colon it was more than 100 µM; in the test with MDA-MB-435, more than 100 µM; in the test with MOLT-4 leukemia, 23.7 µM. In addition, the TGI is 88.9 µM in the test with OVCAR-3 ovarian, 7.08 µM with RXF 393 renal, more than 100 µM in the test with SNB-19 CNS and more than 100 µM with TK-10 renal.
Consider `COC1C[C@H](O[C@@H]2C[C@H](O[C@@H]3C[C@H](O[C@@H]4C(=O)c5c(cc6cc(O[C@H]7C[C@@H](O[C@H]8C[C@@H](O)[C@H](O)C(C)O8)[C@H](O)C(C)O7)c(C)c(O)c6c5O)C[C@H]4C(OC)C(=O)[C@@H](O)[C@@H](C)O)OC(C)[C@H]3O)OC(C)[C@@H]2O)OC(C)[C@@H]1O` (stereo partly drawn), for which the GI50 with 786-0 renal is 0.116 µM; in the test on CCRF-CEM leukemia, 0.127 µM; in the test with DU-145 prostate it was 0.125 µM; with HT29 colon it was 0.0974 µM; with MDA-MB-435 it was 0.0949 µM; in the test on MOLT-4 leukemia, 0.111 µM. The GI50 in the test on OVCAR-3 ovarian is 0.0936 µM; in the test on RXF 393 renal, 0.094 µM; in the test on SNB-19 CNS, 0.101 µM; in the test with TK-10 renal, 0.173 µM. Further, the TGI was more than 32.5 µM with 786-0 renal; more than 32.5 µM with CCRF-CEM leukemia; more than 32.5 µM with DU-145 prostate; more than 32.5 µM with HT29 colon; 0.45 µM in the test on MDA-MB-435; more than 32.5 µM in the test with MOLT-4 leukemia. Besides, the TGI is 0.773 µM with OVCAR-3 ovarian, 0.525 µM with RXF 393 renal, more than 32.5 µM with SNB-19 CNS and 6.4 µM with TK-10 renal.

These data come from PubChem BioAssay (NCI).
